Experimental data: patent publication US6814953B2, “Bronchodilating compositions and methods” (Dey L.P., priority 2001, dated 2004)
Values after ≈ are worked out from the molar mass of the structure shown.

Columns and labels:
[1] = patients with reversible obstructive respiratory diseases; cited from earlier work
[2] = Estimated shelf-life of formoterol in the compositions (Arrhenius kinetics); format: physicochemical; conditions: in the compositions provided herein
Source text: (§1) Stability samples of the solutions prepared in EXAMPLES 1 and 2 were placed in scintillation vials with teflon-lined caps and stored in stability ovens at accelerated temperatures. At selected time points, aliquots of the samples were removed from the scintillation vials.

[3] = Decomposition kinetics of formoterol in aqueous solution (stability testing by HPLC at accelerated temperatures); format: physicochemical
Source text: In the embodiments herein, the compositions have a pH of about 2.0 to about 8.0. In other embodiments, the compositions have a pH of about 4.0 to about 6.0, or about 4.5 to about 5.5. In certain of the above embodiments, the compositions are formulated at a pH of about 4, 4.4 or 4.6 up to about 5.5, 5.7 or 6. In other embodiments, the pH is about 5.0.
In other of the above embodiments, the compositions further contain a buffer, including, but not limited to, citric acid/phosphate, acetate, barbital, borate, Britton-Robinson, cacodylate, citrate, collidine, formate, maleate, Mcllvaine, phosphate, Prideaux-Ward, succinate, citrate-phosphate-borate (Teorell-Stanhagen), veronal acetate, MES (2-(N-morpholino)ethanesulfonic acid), BIS-TRIS (bis(2-hydroxyethyl)iminotris(hydroxymethyl)methane), ADA (N-(2-acetamido)-2-iminodiacetic acid), ACES (N-(carbamoylmethyl)-2-aminoethanesulfonic acid), PIPES (piperazirie-N,N′-bis(2-ethanesulfonic acid)), MOPSO (3-(N-morpholino)-2-hydroxypropanesulfonic acid), BIS-TRIS PROPANE (1,3-bis(tris(hydroxymethyl)methylamino)propane), BES (N,N-bis(2-hydroxyethyl)-2-aminoethanesulfonic acid), MOPS (3-(N-morpholino)propanesulfonic acid), TES (N-tris(hydroxymethyl)methyl-2-aminoethanesulfonic acid), HEPES (N-(2-hydroxyethyl)piperazine-N′-(2-ethanesulfonic acid), DIPSO (3-(N,N-bis(2-hydroxyethyl)amino)-2-hydroxypropanesulfonic acid), MOBS (4-(N-morpholino)butanesulfonic acid), TAPSO (3-(N-tris(hydroxymethyl)methylamino)-2-hydroxypropanesulfonic acid), TRIZMAO (tris(hydroxymethylaminomethane), HEPPSO (N-(2-hydroxyethyl)piperazine-N′-(2-hydroxypropanesulfonic acid), POPSO (piperazine-N,N′-bis(2-hydroxypropanesulfonic acid)), TEA (triethanolamine), EPPS (N-(2-hydroxyethyl)piperazine-N′-(3-propanesulfonic acid), TRICINE (N-tris(hydroxymethyl)methylglycine), GLY-GLY (glycylglycine), BICINE (N;N-bis(2-hydroxyethyl)glycine), HEPBS (N-(2-hydroxyethyl)piperazine-N′-(4-butanesulfonic acid)), TAPS (N-tris(hydroxymethyl)methyl-3-aminopropanesulfonic acid), AMPD (2-amino-2-methyl-1,3-propanediol), and/or any other buffers known to those of skill in the art. In one embodiment, the buffer is citric acid/phosphate buffer, acetate buffer, citrate buffer or phosphate buffer. In another embodiment, the buffer is a citrate buffer (citric acid/sodium citrate). […] Buffer concentrations for use herein include from about 0 or 0.01 mM to about 150 mM, or about 1 mM to about 20 mM. In one embodiment, the buffer concentration is about 5 mM. In another embodiment, the buffer concentration is about 1 mM to about 50 mM, or about 20 mM. […] The particular buffer and buffer concentration of a given composition for long term storage provided herein may be determined empirically using standard stability assays well known to those of skill in the art (see, e.g., the Examples).
The solutions were stored at 60° C.
as §1

Structure (SMILES): COc1ccc(CC(C)NCC(O)c2ccc(O)c(NC=O)c2)cc1 (racemic) [formoterol, 2-hydroxy-5-((1RS)-1-hydroxy-2-(((1RS)-2-(p-methoxyphenyl)-1-methylethyl)amino)ethyl)formanilide]
- duration of bronchodilatory effect [1]: greater than 12 hours
- onset of bronchodilatory effect [1]: 1 to 3 min
- solubility (physchem; aqueous buffer): ~2200 µg/mL (≈ 6.39 mM)
- solubility (physchem; pH 3, aqueous buffer): ~4800 µg/mL (≈ 13.9 mM)
- solubility (physchem; pH 4, aqueous buffer): ~3000 µg/mL (≈ 8.71 mM)
- solubility (physchem; water): ~2000 µg/mL (≈ 5.81 mM)
- estimated shelf-life ([2]; 5° C.): about 6.2 years
- estimated shelf-life ([2]; 25° C.): about 7.5 months
- pH at which decomposition in aqueous solution is slowest ([3]; 60° C., buffer concentration 5 mM, ionic strength 0.05): about 5.0
- rate constant (kobs) for decomposition of an aqueous solution ([3]; 60° C., pH 3, buffer concentration 5 mM, ionic strength 0.05): approximately 0.62 day^−1
- rate constant (kobs) for decomposition of an aqueous solution ([3]; 60° C., pH 4, buffer concentration 5 mM, ionic strength 0.05): ~0.11 day⁻¹
- rate constant (kobs) for decomposition of an aqueous solution ([3]; 60° C., pH 5, buffer concentration 5 mM, ionic strength 0.05): ~0.044 day⁻¹
- rate constant (kobs) for decomposition of an aqueous solution ([3]; 60° C., pH 7, buffer concentration 5 mM, ionic strength 0.05): ~0.55 day⁻¹
- effect of increasing buffer concentration from 5 mM to 20 mM on rate constant of decomposition ([3]; low and approximately neutral conditions (pH)): increased the rate constant of decomposition significantly
- effect of increasing buffer concentration from 5 mM to 20 mM on rate constant of decomposition ([3]; pH region of about 4.5 to about 5.5): no noticeable differences in rate constant
